Data on 26 compounds can be found in patent US4767765A, “N-substituted-N-[3-(1,2,4-triazolo-[4,3-b]pyridazin-6-yl )phenyl]alkanamides, carbamates and ureas” (American Cyanamid Company, priority 1987, dated 1988).

The test system of assay [1] is Clonic Seizures Caused by Pentylenetetrazole in Rats. The experiment in a line: Protection against clonic seizures caused by pentylenetetrazole in rats. The following applies: Rattus norvegicus, oral or i.p., pentylenetetrazole 23 mg/kg i.v. at 30 or 60 minutes, read-out: % of Rats Protected. It counts as in vivo. The method, then: The antianxiety and anticonvulsant properties of the novel compounds of the present invention were established in a test which indicates both anxiolytic and antiepileptic activity by the measure of protection from convulsions resulting from the administration of pentylenetetrazole. Single or graded dose levels of the test compounds were administered orally or intraperitoneally in a 2% starch vehicle, containing 0.5% v/v polyethylene glycol and one drop of Polysorbate 80 to groups of at least 4 rats. At 30 or 60 minutes, the rats were treated intravenously with pentylenetetrazole at a dose of 23 mg/kg of body wieght. This dose is estimated to cause clonic seizures in 99% of unprotected rats. It has been reported [R. T. Hill and D. H. Tedeschi, "Animal Testing and Screening Procedures in Evaluating Psychotropic Drugs" in An Introduction to Psychopharmacology, Eds. R. R. Rech and K. E. Moore, Raven Press, New York, pp 237-288 (1971,] that there is a high degree of correlation between antagonism of pentylenetetrazole seizures in rats and antianxiety and anticonvulsant effects in higher warm-blooded animals. The results of this test on representative compounds of this invention are shown in Table I.

The subject of assay [2] is Nonconditioned Passive Avoidance in Rats. As to the kind of experiment: Nonconditioned passive avoidance test in rats (conflict procedure). Format: in vivo, rat (Wistar). Set-up: key: Active: considered active if the number of shocks received by the test group is significantly higher than the control group by the Mann-Witney U test. As to conditions: oral or i.p., 30 or 60 minutes. The method, then:
Another test which has been used to assess anti-anxiety effects is a non-conditioned passive avoidance procedure described by J. R. Vogel, B. Beer and D. E. Clody, "A Simple and Reliable Conflict Procedure for Testing Anti-anxiety Agents", Psychopharmacologia, 21, 1-7 (1971). A conflict situation is induced in rats by a modification of this method.
Groups of 6 naive, Wistar strain rats, weighing 200-240 g each were deprived of water for 48 hours and food for 24 hours. The test compounds were administered in single or graded, oral or intraperitoneal doses, suspended in a 2% starch vehicle containing 0.5% v/v polyethylene glycol and one drop of polysorbate 80. Control animals received the vehicle alone. At 30 or 60 minutes each rat was placed in an individual plexiglass chamber. Water was available ad libitum from a tap located in the rear of the chamber. A 0.7 milliampere DC shocking current was established between the stainless steel grid floor and the tap. After 20 licks of non-shocked drinking, a shock was delivered for 2 seconds and then further shocks were delivered on a ratio of one shock for 2 seconds for every 20 licks. This was continued for a total of 3 minutes. The number of shocks taken by each rat during the 3 minute interval was recorded and compared to a control group. […]

For assay [3], the system named is Brain-Specific Receptors of Rats. As to the kind of experiment: Inhibition of the binding of 3H-benzodiazepine to brain-specific receptors of rats. Further details: species or system rat (Wistar). As to conditions: 3H-diazepam 1.5 nM or 3H-flunitrazepam 1.0 nM; rat cortex P2 fraction, pH 7.4, 30 minutes in ice; test concentration not given.

In the case of `CCC(=O)N(CC)c1cccc(-c2ccc3nnc(C)n3n2)c1` [N-Ethyl-N-[3-(3-methyl-1,2,4-triazolo[4,3-b]pyridazin-6-yl)phenyl]propanamide], the responders at 3.1 mg/kg in assay [1] was found to be 75%. In assay [2] (dose 3.1 mg/kg), the “Results (nonconditioned passive avoidance)” value (“Results” below) is recorded as “Active”. For the same compound, the “% Inhibition” value in assay [3] was 95%.

With `COC(=O)Nc1cccc(-c2ccc3nncn3n2)c1` [[3-(1,2,4-Triazolo[4,3-b]pyridazin-6-yl)phenyl]carbamic acid, methyl ester], the “% Inhibition” value in assay [3] is 18%.

With `Cc1nnc2ccc(-c3cccc(NC(=O)N(C)C)c3)nn12` [N,N-Dimethyl-N'-[3-(3-methyl-1,2,4-triazolo[4,3-b]pyridazin-6-yl)phenyl]urea], in assay [3], the “% Inhibition” value was 10%.

Take `CCN(C(=O)OC)c1cccc(-c2ccc3nnc(C)n3n2)c1` [Ethyl[3-(3-methyl-1,2,4-triazolo[4,3-b]pyridazin-6-yl)phenyl]carbamic acid, methyl ester]: in assay [1], the responders at 3.1 mg/kg is 75%. The “Results” value in assay [2] (dose 1.5 mg/kg) is given as “Active”. Further, the “% Inhibition” value in assay [3] is 60%.

Consider `CC(=O)N(C)c1cccc(-c2ccc3nnc(N)n3n2)c1` [N-Methyl-N-[3-(3-amino-1,2,4-triazolo[4,3-b]pyridazin-6-yl)phenyl]acetamide], for which the “% Inhibition” value in assay [3] was 58%.

Regarding `CCN(C(C)=O)c1cccc(-c2ccc3nncn3n2)c1` [N-Ethyl-N-[3-(1,2,4-triazolo[4,3-b]pyridazin-6-yl)phenyl]acetamide], the responders at 25 mg/kg in assay [1] was 100%. For the same compound, the “Results” value in assay [2] (dose 12.5 mg/kg) is “Active”. Moreover, the “% Inhibition” value in assay [3] came to 78%.

Consider `CCC(=O)Nc1cccc(-c2ccc3nnc(C)n3n2)c1` [N-[3-(3-Methyl-1,2,4-triazolo[4,3-b]pyridazin-6-yl)phenyl]propanamide], for which, in assay [3], the “% Inhibition” value is listed as 56%.

`CCC(=O)N(C)c1cccc(-c2ccc3nncn3n2)c1` [N-Methyl-N-[3-(1,2,4-triazolo[4,3-b]pyridazin-6-yl)phenyl]propanamide]: the responders at 25 mg/kg in assay [1] worked out at 100%. The “Results” value in assay [2] (dose 25 mg/kg) was “Active”. Also, the “% Inhibition” value in assay [3] is listed as 56%.

Consider `C=CCN(C(C)=O)c1cccc(-c2ccc3nnc(C)n3n2)c1` [N-[3-(3-Methyl-1,2,4-triazolo[4,3-b]pyridazin-6-yl)phenyl]-N-2-propenylacetamide], for which, in assay [1] (dose 6.25 mg/kg), the responders at 6.25 mg/kg was found to be 100%. In assay [2] (dose 25 mg/kg), the “Results” value was “Active”. Besides, the “% Inhibition” value in assay [3] amounted to 96%.

For `CC(=O)N(C)c1cccc(-c2ccc3nncn3n2)c1` [N-Methyl-N-[3-(1,2,4-triazolo[4,3-b]pyridazin-6-yl)phenyl]acetamide], the responders at 25 mg/kg in assay [1] amounted to 50%. Further, the “Results” value in assay [2] (dose 12.5 mg/kg) is “Active”. The “% Inhibition” value in assay [3] is given as 45%.

Take `CCC(=O)N(CC)c1cccc(-c2ccc3nncn3n2)c1` [N-Ethyl-N-[3-(1,2,4-triazolo[4,3-b]pyridazin-6-yl)phenyl]propanamide]: in assay [1], the responders at 3.1 mg/kg was 50%. Also, in assay [2] (dose 3.1 mg/kg), the “Results” value was “Active”. Further, the “% Inhibition” value in assay [3] was 84%.

As for `C=CCN(C(C)=O)c1cccc(-c2ccc3nncn3n2)c1` [N-2-Propenyl-N-[3-(1,2,4-triazolo[4,3-b]pyridazin-6-yl)phenyl]acetamide], in assay [3], the “% Inhibition” value was found to be 68%.

Consider `CCN(C(C)=O)c1cccc(-c2ccc3nnc(N)n3n2)c1` [N-Ethyl-N-[3-(3-amino-1,2,4-triazolo[4,3-b]pyridazin-6-yl)phenyl]acetamide], for which, in assay [3], the “% Inhibition” value turned out to be 90%.

Take `CCC(=O)N(C)c1cccc(-c2ccc3nnc(C)n3n2)c1` [N-Methyl-N-[3-(3-methyl-1,2,4-triazolo[4,3-b]pyridazin-6-yl)phenyl]propanamide]: the responders at 12.5 mg/kg in assay [1] came out at 25%. Further, the “Results” value in assay [2] (dose 3.1 mg/kg) is listed as “Active”. The “% Inhibition” value in assay [3] came to 89%.

For the compound `Cc1nnc2ccc(-c3cccc(N(C)C(=O)N(C)C)c3)nn12` [N,N,N'-Trimethyl-N'-[3-(3-methyl-1,2,4-triazolo[4,3-b]pyridazin-6-yl)phenyl]urea], the responders at 25 mg/kg in assay [1] was determined as 50%. For the same compound, the “Results” value in assay [2] (dose 25 mg/kg) is recorded as “Active”.

Regarding `C#CCN(C(C)=O)c1cccc(-c2ccc3nncn3n2)c1` [N-2-Propynyl-N-[3-(1,2,4-triazolo[4,3-b]pyridazin-6-yl)phenyl]acetamide], the “% Inhibition” value in assay [3] was determined as 49%.

On to `CC(=O)N(C)c1cccc(-c2ccc3nnc(C)n3n2)c1` [N-Methyl-N-[3-(3-methyl-1,2,4-triazolo[4,3-b]pyridazin-6-yl)phenyl]acetamid], for which the responders at 6 mg/kg in assay [1] (dose 6.0 mg/kg) came out at 100%. For the same compound, the “Results” value in assay [2] (dose 3.1 mg/kg) was “Active”. In assay [3], the “% Inhibition” value was 89%.

Consider `CCCN(C(C)=O)c1cccc(-c2ccc3nnc(C)n3n2)c1` [N-[3-(3-Methyl-1,2,4-triazolo[4,3-b]pyridazin-6-yl)phenyl]-N-propylacetamide], for which the “% Inhibition” value in assay [3] is given as 93%.

Regarding `COC(=O)Nc1cccc(-c2ccc3nnc(C)n3n2)c1` [[3-(3-Methyl-1,2,4-triazolo[4,3-b]pyridazin-6-yl)phenyl]carbamic acid, methyl ester], the “Results” value in assay [2] (dose 25 mg/kg) is recorded as “Active”. Besides, in assay [3], the “% Inhibition” value was 18%.

Regarding `CCN(C(=O)N(C)C)c1cccc(-c2ccc3nnc(C)n3n2)c1` [N-Ethyl-N',N'-dimethyl-N-[(3-methyl-1,2,4-triazolo[4,3-b]pyridazin-6-yl)phenyl]urea], the responders at 12.5 mg/kg in assay [1] was determined as 75%. The “Results” value in assay [2] (dose 3.1 mg/kg) is “Active”.

Take `CC(=O)N(CC1CC1)c1cccc(-c2ccc3nnc(C)n3n2)c1` [N-(Cyclopropylmethyl)-N-[3-(3-methyl-1,2,4-triazolo[4,3-b]pyridazin-6-yl)phenyl]acetamide]: in assay [1], the responders at 12.5 mg/kg turned out to be 75%. Besides, the “Results” value in assay [2] (dose 6.2 mg/kg) is “Active”. Also, in assay [3], the “% Inhibition” value is recorded as 93%.

In the case of `COC(=O)N(C)c1cccc(-c2ccc3nncn3n2)c1` [Methyl-[3-(1,2,4-triazolo[4,3-b]pyridazin 6-yl)phenyl]carbamic acid, methyl ester], the responders at 25 mg/kg in assay [1] worked out at 25%. Besides, the “% Inhibition” value in assay [3] turned out to be 62%.

Take `COC(=O)N(C)c1cccc(-c2ccc3nnc(C)n3n2)c1` [Methyl[3-(3-methyl-1,2,4-triazolo[4,3-b]pyridazin-6-yl)phenyl]carbamic acid, methyl ester]: the responders at 25 mg/kg in assay [1] is 100%. In addition, the “Results” value in assay [2] (dose 3.1 mg/kg) is “Active”. In addition, in assay [3], the “% Inhibition” value amounted to 62%.

Turning to `C#CCN(C(C)=O)c1cccc(-c2ccc3nnc(C)n3n2)c1` [N-[3-(3-Methyl-1,2,4-triazolo[4,3b]pyridazin-6-yl)phenyl]-N-2-propynylacetamide], in assay [1], the responders at 3.1 mg/kg amounted to 100%. The “Results” value in assay [2] (dose 1.5 mg/kg) was “Active”. The “% Inhibition” value in assay [3] was found to be 90%.

Consider `CCN(C(=O)OC)c1cccc(-c2ccc3nncn3n2)c1` [Ethyl[3-(1,2,4-triazolo[4,3-b]pyridazin-6-yl)phenyl]carbamic acid, methyl ester], for which the responders at 25 mg/kg in assay [1] is 100%. Further, the “Results” value in assay [2] (dose 25 mg/kg) is given as “Active”. For the same compound, the “% Inhibition” value in assay [3] is reported as 78%.

As to `CCN(C(C)=O)c1cccc(-c2ccc3nnc(C)n3n2)c1` [N-Ethyl-N-[3-(3-methyl-1,2,4-triazolo[4,3-b]pyridazin-6-yl)phenyl]acetamide], in assay [1], the responders at 12.5 mg/kg was determined as 100%. Besides, the “Results” value in assay [2] (dose 0.8 mg/kg) is given as “Active”. For the same compound, in assay [3], the “% Inhibition” value is 90%.
